Measured values published in patent US20040014209A1, “Compositions and methods for modulating cell differentiation” (priority 2002, published 2004).

System: ventral marginal zone (VMZ) explants
Assay: VMZ explant assay: mRNA injection, cardiac-specific gene expression and beating
Assay type: cell-based, Xenopus laevis
Description: In a modification of this assay (FIG. 6A), we targeted mRNAs encoding Wnt and BMP antagonists to VMZ tissue by microinjection into the equatorial region of both ventral blastomeres of four-cell stage embryos. VMZ explants were isolated at stage 10, cultured, and assayed at stage 30 by RT-PCR for cardiac-specific gene expression.
Embryos were fertilized in vitro, dejellied in 2% cysteine-HCl (pH 7.8), and maintained in 0.1×MMR. Explant dissections were performed in 0.75×MMR using an eyelash knife. Embryos were staged according to Nieuwkoop and Faber (1994).
Marginal zone explants were dissected at stage 10. Those explants to be examined by RT-PCR for expression of heart field marker- and heart muscle-specific genes were cultured until sibling embryos were stage 30. In situ hybridization was performed on explants cultured to the equivalent of stage 23 or stage 30. Explants to be scored for formation of beating hearts were maintained until the equivalent of stage 41.
mRNA was transcribed from pSP35-chd, pSP64-ngn, pCS2-DKK1, pCS2-Crescent, pCS2-GSK3, pCS2-WIF, pCS2-dnXwnt8, pCS2-szl, and pXT7-FrzA using the SP6 and T7 mMessage mMachine kits (Ambion). All cDNAs used encode Xenopus proteins except those for Wnt1 and crescent, which encode chick isoforms. The Xenopus form of crescent was identified while this manuscript was in preparation (Pfeffer et al. 1997; Pera and De Robertis 2000; Shibata et al. 2000) and functions identically to the chick isoform in our assays. Xenopus and chick Crescent share 88% amino acid positional identity within the cysteine-rich domain. Injections were performed in 3% Ficoll in 1×MMR. Embryos were injected equatorially into the two ventral or two dorsal blastomeres at the four-cell stage to target expression to the ventral or dorsal marginal zone. The amount of mRNA injected is given in the text. For plasmid cDNA injections, 75 pg of pCS2-Xwnt3A, pCS2-Xwnt5A, and pCSKA-Xwnt8 and 100 pg of pCS2-cWnt11 supercoiled plasmid constructs were injected.
RT-PCR was performed as described in Schneider and Mercola (1999). Twenty-five cycles were performed at an annealing temperature of 55° C., unless otherwise noted. Expression of EF1α was used as a positive control for the reverse transcriptase reaction. The following additional primers were used: XNkx2.5+, […] (SEQ ID NO: 7); XNkx2.5−, […] (SEQ ID NO: 8); M. actin+, […] (SEQ ID NO: 9); M. actin−, […] (SEQ ID NO: 10) (22 cycles); TnIc+, […] (SEQ ID NO: 11); TnIc−, […] (SEQ ID NO: 12); MHCα+, […] GTTCCG (SEQ ID NO: 13); MHCα−, […] (SEQ ID NO: 14); Tbx5+, […] (SEQ ID NO: 15); Tbx5−, […] (SEQ ID NO: 16) (27 cycles); XNkx2.10+, […] (SEQ ID NO: 17); and XNkx2.10−, […] (SEQ ID NO: 18) (59° C., 28 cycles).
A secreted version of the C-terminal fragment was made by fusing the secretory region of human Dkk1 to the C-terminal region cysteine rich region, as described above. This protein is referred to as “C1.” Briefly, the HindIII-Asp718 C-terminal fragment of human Dkk1 (SEQ ID NO: 1) was ligated to the sequence encoding the secretory signal of Dkk1 and cloned into a vector permitting in vitro transcription. As a control, full length Dkk1 was used. RNA was prepared in vitro from the vector as described above. The RNA encoded a polypeptide comprising amino acids 158-266 of SEQ ID NO: 2. The RNA was then injected into noncardiogenic frog embryonic mesoderm, as described above and in Schneider and Mercola (2001) Genes & Dev. 15:304.

## dkk-1
900 pg dkk-1, 1.5 ng crescent or 1.5 ng frzb mRNA, scored at stage 41
  Explants with rhythmic beating: 73.2%
VMZ explants cultured to stage 41
  Explants with induced cement glands: 90.7%
VMZ explants, RT-PCR at stage 30
  mRNA dose inducing cardiac-specific gene expression: ≥ 450 pg
mRNA injected ventrally at four-cell stage, VMZ explants, RT-PCR stage 30
  Heart-specific gene expression (TnIc, MHCα): strong expression of TnIc and MHCα
